Measured values taken from patent US20120238447A1 (priority 2009, published 2012).
Read-outs that look alike come from different tables or passages of the source.

Assays:
[1] = tested on: Septoria tritici; assay: Activity against leaf blotch on wheat caused by Septoria tritici (microtiter plate test); format: cell-based; details: MTP, 405 nm, 7 days after inoculation, 18° C
[2] = tested on: Pyricularia oryzae; format: cell-based; details: MTP, 405 nm, 7 days after inoculation, 18° C, efficacy from relative growth in %

SMILES	Observed efficacy ([1]; Triazamat alone, 0.25 ppm)	Observed efficacy ([2]; triazamat alone, 1 ppm)	Observed efficacy ([1]; Pyraclostrobin alone, 0.001 ppm)	Observed efficacy ([2]; pyraclostrobin alone, 0.004 ppm)
CCOC(=O)CSc1nc(C(C)(C)C)nn1C(=O)N(C)C [triazamat, triazamate]	4	4	–	–
COC(=O)N(OC)c1ccccc1COc1ccn(-c2ccc(Cl)cc2)n1 [pyraclostrobin]	–	–	7	23
